Test results reported in patent publication US10781189B2, “1,2,4-Oxadiazole and thiadiazole compounds as immunomodulators” (Aurigene Discovery Technologies Limited, priority 2015, dated 2020).

Target: T1, Recombinant mouse PD-L1 (Mus musculus, UniProt Q9EP73)
T1 construct: Fc (Fc chimera); purchased R&D Systems 1019-B7-100
Assay: Rescue of mouse splenocyte proliferation in the presence of recombinant PD-L1 (CFSE proliferation assay)
Type: cell-based
Details: 100 nM compound; CFSE-labelled C57 BL6 mouse splenocytes + anti-CD3/CD28 + PD-L1 (100 ng/mL), 72 h; normalised to stimulated splenocytes as 100%; read-out: Percent rescue of splenocyte proliferation (@100 nM)
Procedure: Example 15: Rescue of Mouse Splenocyte Proliferation in the Presence of Recombinant PD-L1
Recombinant mouse PD-L1 (rm-PDL-1, cat no: 1019-B7-100; R&D Systems) were used as the source of PD-L1.
Mouse splenocytes harvested from 6-8 weeks old C57 BL6 mice; RPMI 1640 (GIBCO, Cat #11875); DMEM with high glucose (GIBCO, Cat # D6429); Fetal Bovine Serum [Hyclone, Cat # SH30071.03]; Penicillin (10000 unit/mL)-Streptomycin (10,000 μg/mL) Liquid (GIBCO, Cat #15140-122); MEM Sodium Pyruvate solution 100 mM (100×), Liquid (GIBCO, Cat #11360); Nonessential amino acid (GIBCO, Cat #11140); L-Glutamine (GIBCO, Cat #25030); Anti-CD3 antibody (eBiosciences—16-0032); Anti-CD28 antibody (eBiosciences—16-0281); ACK lysis buffer (1 mL) (GIBCO, Cat #-A10492); Histopaque (density-1.083 gm/mL) (SIGMA 10831); Trypan blue solution (SIGMA-T8154); 2 mL Norm Ject Luer Lock syringe-(Sigma 2014-12); 40 μm nylon cell strainer (BD FALCON 35230); Hemacytometer (Bright line-SIGMA Z359629); FACS Buffer (PBS/0.1% BSA): Phosphate Buffered Saline (PBS) pH 7.2 (HiMedia TS1006) with 0.1% Bovine Serum Albumin (BSA) (SIGMA A7050) and sodium azide (SIGMA 08591); 5 mM stock solution of CFSE: CFSE stock solution was prepared by diluting lyophilized CFSE with 180 μL of Dimethyl sulfoxide (DMSO C2H6SO, SIGMA-D-5879) and aliquoted in to tubes for further use. Working concentrations were titrated from 10 μM to 1 μM. (eBioscience—650850-85); 0.05% Trypsin and 0.02% EDTA (SIGMA 59417C); 96-well format ELISA plates (Corning CLS3390); BD FACS caliber (E6016); Recombinant mouse B7-H1/PDL1 Fc Chimera, (rm-PD-L1 cat no: 1019-B7-100).
Splenocytes harvested in a 50 mL falcon tube by mashing mouse spleen in a 40 μm cell strainer were further treated with 1 mL ACK lysis buffer for 5 min at room temperature. After washing with 9 mL of RPMI complete media, cells were re-suspended in 3 mL of 1×PBS in a 15 mL tube. 3 mL of Histopaque was added carefully to the bottom of the tube without disturbing overlaying splenocyte suspension. After centrifuging at 800×g for 20 min at room temperature, the opaque layer of splenocytes was collected carefully without disturbing/mixing the layers. Splenocytes were washed twice with cold 1×PBS followed by total cell counting using Trypan Blue exclusion method and used further for cell based assays.
Splenocytes were cultured in RPMI complete media (RPMI+10% fetal bovine serum+1 mM sodium pyruvate+10,000 units/mL penicillin and […] streptomycin) and maintained in a CO2 incubator with 5% CO2 at 37° C.
CFSE is a dye that passively diffuses into cells and binds to intracellular proteins. 1×10^6 cells/mL of harvested splenocytes were treated with 5 μM of CFSE in pre-warmed 1×PBS/0.1% BSA solution for 10 min at 37° C. Excess CFSE was quenched using 5 volumes of ice-cold culture media to the cells and incubated on ice for 5 min. CFSE labelled splenocytes were further given three washes with ice cold complete RPMI media. CFSE labelled 1×10^5 splenocytes added to wells containing either MDA-MB231 cells (1×10^5 cells cultured in high glucose DMEM medium) or recombinant human PDL-1 (100 ng/mL) and test compounds. Splenocytes were stimulated with anti-mouse CD3 and anti-mouse CD28 antibody (1 μg/mL each) and the culture was further incubated for 72 h at 37° C. with 5% CO2. Cells were harvested and washed thrice with ice cold FACS buffer and % proliferation was analysed by flow cytometry with 488 nm excitation and 521 nm emission filters.
Percent splenocyte proliferation was analysed using cell quest FACS program and percent rescue of splenocyte proliferation by compound was estimated after deduction of % background proliferation value and normalising to % stimulated splenocyte proliferation (positive control) as 100%.
Stimulated splenocytes: Splenocytes+anti-CD3/CD28 stimulation
Background proliferation: Splenocytes+anti-CD3/CD28+PD-L1
Compound proliferation: Splenocytes+anti-CD3/CD28+PD-L1+Compound […]

T1 sequence (Q9EP73 with tags, fused parts or gaps limits assumed): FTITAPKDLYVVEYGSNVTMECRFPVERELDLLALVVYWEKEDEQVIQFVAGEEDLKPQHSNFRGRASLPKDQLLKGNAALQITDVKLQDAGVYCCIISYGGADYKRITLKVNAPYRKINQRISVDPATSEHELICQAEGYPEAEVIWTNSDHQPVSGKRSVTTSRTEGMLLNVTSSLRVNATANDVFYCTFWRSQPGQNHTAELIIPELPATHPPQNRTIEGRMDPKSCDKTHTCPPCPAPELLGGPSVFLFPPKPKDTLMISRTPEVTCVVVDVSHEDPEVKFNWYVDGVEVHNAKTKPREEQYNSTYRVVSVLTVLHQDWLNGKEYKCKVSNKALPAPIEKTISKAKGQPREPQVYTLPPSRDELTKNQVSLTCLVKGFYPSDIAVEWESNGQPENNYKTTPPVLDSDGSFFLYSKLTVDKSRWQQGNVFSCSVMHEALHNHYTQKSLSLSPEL

| Compound | activation at 0.1 µM |
| --- | --- |
| CC(O)[C@H](N)c1noc([C@H](Cc2ccccc2)NC(=O)N2CCC[C@H]2C(=O)O)n1 (stereo partly shown) [Compound 62] | 35% |
| CCCNC(=O)CC[C@H](NC(=O)N[C@H](C(=O)O)C(C)O)c1nc([C@@H](N)CO)no1 (stereo partly shown) [Compound 75] | 119% |
| CCCCCCNC(=O)CC[C@@H](NC(=O)N[C@H](C(=O)O)C(C)O)c1nc([C@@H](N)CO)no1 (stereo partly shown) [Compound 76] | 67% |
| CCCCCCNC(=O)C[C@H](NC(=O)N[C@H](C(=O)O)C(C)O)c1nc([C@@H](N)CO)no1 (stereo partly shown) [Compound 77] | 75% |
| CCCCCCNC(=O)CC[C@H](NC(=O)N[C@@H](CCC(N)=O)C(=O)N[C@H](C(=O)O)C(C)O)c1nc([C@@H](N)CO)no1 (stereo partly shown) [Compound 78] | 42% |
| CC(O)[C@@H](NC(=O)N[C@@H](CC(N)=O)c1nc([C@@H](N)CO)no1)c1nnc(CO)o1 (stereo partly shown) [Compound 79] | 37% |
| CCCCCOC(=O)[C@@H](NC(=O)N[C@@H](CC(N)=O)c1nc([C@@H](N)CO)no1)C(C)O (stereo partly shown) [Compound 80] | 55% |
| CC(O)[C@H](NC(=O)[C@H](CCC(N)=O)NC(=O)N[C@@H](CC(N)=O)c1nc([C@@H](N)CO)no1)C(=O)O (stereo partly shown) [Compound 81] | 18% |
| CC(C)C[C@H](N)c1noc([C@H](CC(N)=O)NC(=O)CNC(=O)N[C@H](C(=O)O)C(C)O)n1 (stereo partly shown) [Compound 82] | 12% |
| CC(O)[C@H](NC(=O)N[C@@H](CC(N)=O)c1noc([C@@H](N)CO)n1)C(=O)O (stereo partly shown) [Compound 83] | 34% |
| NC(=O)C[C@H](NS(=O)(=O)C1CC1)c1nc([C@@H](N)CO)no1 [Compound 84] | 71% |
| NC(=O)C[C@H](NS(=O)(=O)C1CCCC1)c1nc([C@@H](N)CO)no1 [Compound 88] | 10% |
| NC(=O)C[C@H](NS(=O)(=O)C1CCCCC1)c1nc([C@@H](N)CO)no1 [Compound 89] | 54% |
| CC(=O)Nc1ccc(S(=O)(=O)N[C@@H](CC(N)=O)c2nc([C@@H](N)CO)no2)cc1 [Compound 90] | 66% |
| Cn1cc(CN[C@@H](CC(N)=O)c2nc([C@@H](N)CO)no2)cn1 [Compound 95] | 30% |
| NCCCC[C@H](N)c1noc([C@H](CCC(N)=O)NS(=O)(=O)N[C@@H](CO)C(=O)O)n1 [Compound 103] | 79% |
